Experimental data reported in paper PMC10878246, “Crystal structure and biochemical activity of the macrodomain from rubella virus p150” (Journal of virology, 2024).

Biological target: T1, RuV macrodomain (macrodomain from rubella virus p150) (Rubella virus, UniProt G3M8F4)
T1 construct: gene NSP; macrodomain, p150 residues 805-983 (p150 is cut from nonstructural polyprotein p200); pET24a, C-terminal His6 tag, no tag cleavage described; E. coli BL21(DE3)
Assay: isothermal titration calorimetry
Format: binding
Settings: 20 mM HEPES pH 8, 0.15 M NaCl, 25 °C; 1:1 single-site; crystal structure by soaking with 2 mM ADP-ribose

Nc1ncnc2c1ncn2[C@@H]1O[C@H](COP(=O)(O)OP(=O)(O)OC[C@H]2OC(O)[C@H](O)[C@@H]2O)[C@@H](O)[C@H]1O (stereo partly shown) [ADP-ribose]
Kd: 58.1 ± 5.4 µM
